In brackets after ≈: the same amount, converted by molar mass. Like-named read-outs stand apart in the source and are kept apart here.
Assays:
[1] = tested on: strips de veines mésentériques porte de rats normotendus; assay: Calcium antagonist activity: spontaneous contractions of rat portal mesenteric vein strips; conditions: 10 microg/ml
[2] = tested on: rat soumis à une surcharge hydrique; assay: Diuretic activity in rats given a water overload, oral; type: in vivo; conditions: rat, water overload, oral; for response vs control in vivo at 20 mg/kg: read-out: facteur multipliant l'excrétion urinaire du sodium
Description: L'activité diurétique a été déterminée sur plusieurs modèles expérimentaux. Chez le rat soumis à une surcharge hydrique, administrés par voie orale à la dose de 20 mg/kg, le COR3760, le COR3789, le COR3792, le COR4002, le COR4003, le COR4009, le COR4010, le COR4012 et le COR4014 multiplient l'excrétion urinaire du sodium par respectivement un facteur 2,9 - 3,1 - 5,9 - 2,6 - 7,2 - 3,5 - 3,8 - 2,9 - 2,4. Administrés à la dose de 10 mg/kg, dans les mêmes conditions, les COR3760, COR3789, COR3792, COR4003 et COR4010 multiplient l'excrétion sodique par respectivement 2,3 - 2,9 - 2,8 - 2,4 et 2,5. La spironolactone multiplie quant à elle l'excrétion sodique d'un facteur 3,6 à la dose de 20 mg/kg. Administré à la dose de 5 mg/kg dans les mêmes conditions, le COR3792 multiplie l'excrétion sodique par 3,3. Administré par voie orale chez le rat ou la souris soumis à une surcharge saline, le COR3760 augmente l'excrétion urinaire volumétrique mesurée à la sixième heure de respectivement 49, 119 et 134% chez la souris et 28, 84 et 116% chez le rat après administration de 10, 20, et 40 mg/kg. Le COR3760 a été administré par voie orale au rat soumis à une surcharge hydrique et l'excrétion urinaire volumétrique, le sodium et le potassium excrétés ont été mesurés sur une période de 6 heures; ces paramètres ont varié de respectivement +17%, +102%, +165% à 10 mg/kg, +19%, +147%, +180% à 20 mg/kg et +36%, +415% et +239% à 40 mg/kg; le rapport Na/K passe de 0,56 chez les animaux témoins à 0,4 à 10 mg/kg, 0,49 à 20 mg/kg et 0, 8 à 40 mg/ kg. Au cours d'une seconde expérimentation, le COR3760 a entrainé des variations de +19%, +157%, +70% à 40 mg/kg, +19%, +319%, +90% à 60 mg/kg et +29%, +472% et +77% à 80 mg/kg; le rapport Na/K passe de 0,59 chez les animaux témoins à 0,88 à 40, 1,15 à 60 et 1,88 à 80 mg/kg.

[3] = tested on: souris; assay: Acute toxicity (mortality, LD50) in mice; type: in vivo; conditions: mouse
[4] = tested on: oreillette gauche de cobaye; assay: Calcium antagonist activity: electrically stimulated guinea pig left atrium; conditions: 150 beats/min, low-calcium (0,6 mM) Tyrode solution; read-out: concentration qui inhibe de 50% l'augmentation de la force de contraction induite par l'addition de 0,6 mM de calcium
Description: L'activité anticalcique a été déterminée in vitro sur deux modèles expérimentaux.
Sur oreillette gauche de cobaye stimulée électriquement à 150 battements/mn dans une solution de Tyrode pauvre en calcium (0,6 mM), les COR3789, COR3792, COR4009, COR4010 et COR4011 employés respectivement à 25, 100, 50, 10 et 25 microg/ml inhibent de 50% l'augmentation de la force de contraction induite par l'addition de 0,6 mM de calcium.

[5] = tested on: oedème induit par l'injection intraplantaire de carragénine chez le rat; assay: Anti-inflammatory activity: carrageenan paw oedema in rats; type: in vivo; conditions: oral 1 h before carrageenan, measured 3 h after
Description: L'activité antiinflammatoire a été déterminée chez le rat par la mesure de l'inhibition de l'oedème induit par l'injection intraplantaire de 0,1 ml d'une suspension à 1% de carragénine chez le rat. Les produits à tester sont administrés par voie orale lh avant l'injection de carragénine et la mesure est réalisée 3h après cette injection. Les COR3789, COR3792, COR4003, COR4008 et COR4010 administrés à 10b mg/kg entrainent respectivement 43, 42, 41, 38 et 39% d'inhibition. Administré à 200 mg/kg, le COR3773 entraine 53% d'inhibition. L'aspirine administrée dans les mêmes conditions à 150 mg/kg entraine 40% d'inhibition de l'oedème.

[6] = tested on: segments d'iléon de cobaye isolés; assay: Anticholinergic activity: acetylcholine-induced contractions of isolated guinea pig ileum; conditions: Cavia porcellus; contractions induced by 0,1 microg/ml acetylcholine; read-out: concentration qui inhibe ces contractions de 80%
Text: L'activité anticholinergique a été appréciée par la mesure des contractions induites par 0,1 microg/ml d'acétylcholine sur des segments d'iléon de cobaye isolés. Les COR3760, COR3789, COR3792, COR4003, COR4008, COR4010, COR4014 utilisés respectivement aux concentrations de 50, 25, 25, 50, 25, 10, 25 microg/ml inhibent ces contractions de 80%.

[7] = tested on: poumon de cobaye isolé perfusé; assay: Bronchodilator activity: isolated perfused guinea pig lung contracted by methacholine; conditions: flow of Tyrode solution, lung contracted by 0,05 microg/ml methacholine; read-out: concentration qui augmente ce débit de 50%
Text: L'activité bronchodilatatrice a été déterminée in vitro par la mesure du débit d'une solution de Tyrode à travers un poumon de cobaye isolé perfusé, contracté par l'addition au fluide de perfusion de 0,05 microg/ml de méthacholine. Les COR3760, COR3789, COR3792, COR4003, COR4008, COR4010 et COR4014 utilisés respectivement aux concentrations de 50, 50, 100, 10, 50, 50 et 10 microg/ml augmentent ce débit de 50%. L'aminophylline entraine cette même activité à la concentration de 100 microg/ml.

[8] = tested on: souris; assay: Anticonvulsant activity: bicuculline-induced convulsions in mice; type: in vivo; conditions: mouse, i.p., 100 mg/kg
Description: L'activité anticonvulsivante est également déterminée dans le test des inhibitions des convulsions induites par la bicuculline. Des souris reçoivent par voie intrapéritonéale le produit à tester, puis 30 mn et 5 heures plus tard, deux injections séparées de 0,5 mg de bicuculline. […] Les résultats de ce test sont le reflet d'une activité gabaergique directe.

[9] = tested on: rat Wistar soumis à une surcharge saline; assay: Diuretic activity in selected Wistar rats given a saline overload (modified Wiebelhaus test); type: in vivo
Description: L'activité diurétique des produits selon l'invention a été également déterminée chez le rat Wistar soumis à une surcharge saline selon une modification du test décrit par Wiebelhaus et coll., Fed. Proc., 1960, 19, 364, en procédant à une sélection des animaux. A la dose de 20 mg/kg, les COR4003, COR4008, COR4009, COR4010, COR4011, COR4012, COR4014, COR4016, COR4021, COR4025 augmentent l'excrétion urinaire volumétrique mesurée au bout de 6 heures de respectivement 56, 54, 65, 95, 73, 54, 33, 40, 99 et 92 %. L'excrétion urinaire du sodium augmente de respectivement 56, 24, 42, 59, 43, 33, 29, 43, 31, 83, 26, 99, 40 % toujours à cette dose pour les COR4003, COR4008, COR4009, COR4010, COR4011, COR4012, COR4014, COR4016, COR4017, COR4021, COR4023, COR4025 et COR4026. Le rapport Na/K demeure la plupart du temps inchangé. Testé dans les mêmes conditions le furosémide, administré à la dose de 20 mg/kg entraine 63% d'augmentation de l'excrétion urinaire volumétrique et 53% d'augmentation de l'excrétion urinaire du sodium.

[10] = tested on: iléon de cobaye; assay: Spasmolytic activity: guinea pig ileum contractions induced by transmural stimulation; conditions: 2 microg/ml, oxygenated Krebs solution at 32°C; for inhibition at 2 µg/mL: read-out: inhibition de ces contractions
Description: L'activité spasmolytique a été déterminée in vitro par la mesure de l'effet du produit à tester sur les contractions de l'iléon de cobaye induites par stimulation transmurale dans une solution de Krebs oxygénée à 32°C. Le COR4010 et le COR3773 utilisés à la concentration de 2 microg/ml entrainent 50% d'inhibition de ces contractions.

[11] = 6 h, read-out: augmentation de l'excrétion urinaire volumétrique mesurée au bout de 6 heures
[12] = read-out: augmentation de l'excrétion urinaire du sodium

SMILES | inhibition de l'augmentation, induite par le calcium, des contractions spontanées [1] | facteur multipliant l'excrétion sodique ([2]; 10 mg/kg) | response vs control in vivo at 20 mg/kg [2] [%] | mortalité ([3]; intraperitoneal, 200 mg/kg) | mortalité ([3]; oral, 300 mg/kg) | IC50 [4] [µg/mL] | inhibition de l'oedème ([5]; dose 10b mg/kg [sic]) [%] | IC80 [6] [µg/mL] | EC50 [7] [µg/mL] | inhibition des convulsions induites par la bicuculline ([8]; first bicuculline injection (30 min later)) | inhibition des convulsions induites par la bicuculline ([8]; second bicuculline injection (5 hours later)) | change in vivo at 20 mg/kg [9, 11] [%] | change in vivo at 20 mg/kg [9, 12] [%] | inhibition at 2 µg/mL [10] [%] | inhibition de ces contractions [10] | facteur multipliant l'excrétion sodique ([2]; 5 mg/kg) | inhibition de l'oedème ([5]; 200 mg/kg) [%]
CCNC(C)=C1C(=O)c2ccccc2C1=O [COR3789, (Ethylamino-1 éthylidène)-2 indanedione-1,3] | inhibent l'augmentation | 2,9 | 310 | aucune mortalité | aucune mortalité | 25 (≈ 116 µM) | 43 | 25 (≈ 116 µM) | 50 (≈ 232 µM) |  |  |  |  |  |  |  | 
CCCC(CCC)C(=O)O [valproate de sodium, reference compound] |  |  |  |  |  |  |  |  |  | inhibe les convulsions induites par la première injection | sans inhiber celles induites par la deuxième |  |  |  |  |  | 
CC(NCC(C)C)=C1C(=O)c2ccccc2C1=O [COR4008, (Isobutylamino-1 éthylidényl)-2 indanedione-1,3] |  |  |  | aucune mortalité | aucune mortalité |  | 38 | 25 (≈ 103 µM) | 50 (≈ 206 µM) |  |  | 54 | 24 |  |  |  | 
CCCCNC(C)=C1C(=O)c2ccccc2C1=O [COR4010, (Butylamino-1 éthylidényl)-2 indanedione-1,3] | inhibent l'augmentation | 2,5 | 380 | aucune mortalité | aucune mortalité | 10 (≈ 41.1 µM) | 39 | 10 (≈ 41.1 µM) | 50 (≈ 206 µM) |  |  | 95 | 59 | 50 |  |  | 
COc1ccc(Cc2nccc3cc(OC)c(OC)cc23)cc1OC [papavérine, reference compound] |  |  |  |  |  |  |  |  |  |  |  |  |  |  | la même activité |  | 
CC(NC1CC1)=C1C(=O)c2ccccc2C1=O [COR4014, (Cyclopropylamino-1 éthylidényl)-2 indanedione-1,3] |  |  | 240 | aucune mortalité | aucune mortalité |  |  | 25 (≈ 110 µM) | 10 (≈ 44 µM) |  |  | 33 | 29 |  |  |  | 
CC(NC(C)C)=C1C(=O)c2ccccc2C1=O [COR3792, (Isopropylamino-1 éthylidène)-2 indanedione-1,3] |  | 2,8 | 590 | aucune mortalité | aucune mortalité | 100 (≈ 436 µM) | 42 | 25 (≈ 109 µM) | 100 (≈ 436 µM) |  |  |  |  |  |  | 3,3 | 
CNC(C)=C1C(=O)c2ccc(Cl)cc2C1=O [COR3773, Chloro-5 (méthylamino-1 éthylidène)-2 indanedione-1,3] |  |  |  | aucune mortalité | aucune mortalité |  |  |  |  |  |  |  |  | 50 |  |  | 53

Source: patent EP0171342A1, “Substituted 2-(1-amino-akylidenyl)1,3-indane diones, process for their preparation and their therapeutical use” (priority 1984, dated 1986)
